Type in all cases: biochemical
Assay [1] addresses T1, Aβ (Homo sapiens, UniProt P05067).
T1 construct: Human Aβ42 (4349-v, Peptide Institute); purchased Peptide Institute 4349-v
Briefly: ThT assay of Aβ aggregation. On the procedure:
The ThT assay was conducted according to the method of Levine[10] modified in our laboratory.

The target of assay [2] is T2, Aβ42 (Homo sapiens, UniProt P05067).
T2 construct: Human Aβ42 (4349-v, Peptide Institute); purchased Peptide Institute 4349-v
In words: manual MSHTS system, Aβ aggregation inhibition. On the procedure:
The automated MSHTS system used was based on the method described in the Supplementary Methods. In this study, EC50 values of the plant crude extract library and the compound library were measured by the automated MSHTS system and the manual MSHTS system[19],[20], respectively. All fluorescence micrograph images were taken using a 4x objective in the MSHTS systems. […]
concentrations of RA were incubated with 30 µM A β and 30 nM QD 655-labeled Aβ or QD605-labeled Aβ in a 1536-well plate according to our previous reports1,5. Fluorescence micrographs […]
presence of 600 and 120 µM RA.
(1 picture or pasted object on this page, not shown here) […]
QDAβ were incubated with various concentrations of chaperones i n a 1536-well plate for 24 h at 37 ° C and observed by fluorescence microscopy. C, E, and P indicate CRT , ERp57, and PDI, respectively. EC50 and the SD values were determined from the micrographs of three independent

The target of assay [3] is T3, tau MBD fragment (Mus musculus, UniProt P10637).
T3 construct: added N-terminal methionine (from NdeI site) (N); made in house; host or cells: E. coli Rosetta (DE3) pLys, pET-21a(+)
In words: MSHTS system, tau aggregation inhibition with QDTau nanoprobe. The conditions noted are these: 10 µM tau, 50 nM QDTau, 10 µM heparin, 10 mM DTT, 24 h at 37 °C. From the text:
In this study, we used the microtubule-binding domain (MBD) fragment of 4-repeat tau (Fig. 4a) to image tau aggregation. First, we examined the aggregated condition of tau in the presence of heparin, which formed paired helical-like filaments under physiological conditions in vitro, according to early reports[24],[25]. […] Since 4-repeat tau contains two Cys residues (C222 and C253), it may be necessary for aggregation to occur, to inhibit intramolecular disulfide crosslinking, as was reported in a previous report. […] When 10 μM tau was incubated in the presence of 10 mM DTT, the SD value reached a maximum (Supplementary Fig. S10c,d), so we decided to observe aggregation using 10 μM tau. […] We compared tau and Aβ aggregates by TEM observation. The morphology of tau and Aβ fibrils was difficult to distinguish (Fig. 4b). […] We also confirmed by TEM observation that the aggregation of tau and Aβ contained QD nanoprobes (Fig. 4d). These aggregations were directly observed by confocal microscopy in real time (Fig. 4e). […] The imaging method using a QD nanoprobe without a drying step as in TEM observation may be suitable for detailed observation of aggregate shapes in solution.
Supplementary Fig. S11 Inhibition of tau aggregation by RA (a) and spearmint extract (b). 10 µM tau, 50 nM QDTau, 10 µM heparin, 10 mM DTT were incubated with various concentrations of RA […]
for 24 h at 37 ° C and observed by fluorescence microscopy. EC50 and the SD values were determined from the micrographs of three independent wells.
(1 picture or pasted object on this page, not shown here)
Supplementary Fig. S12 Inhibition of tau and Aβ aggregation by chaperones. 10 µM tau, 50 nM QDTau, 10 µM heparin, 10 mM DTT were incubated with various concentrations of chaperon es in a 1536-well plate for 24 h at 37 °C and observed by fluorescence microscopy. 30 µM Aβ , 30 nM QDAβ were incubated with various concentrations of chaperones i n a 1536-well plate for 24 h at 37 ° C and observed by fluorescence microscopy. C, E, and P indicate CRT , ERp57, and PDI, respectively. EC50 and the SD values were determined from the micrographs of three independent

Setting [4] is: tropolone derivatives, read-out: ThT [µM], EC50, Supplementary Table S4 (converted).
Where [5] appears, read: 2nd screening, tropolone derivatives, read-out: EC50 [µM] by MSHTS system, Supplementary Table S3 (converted).
Setting [6] is: compound library, Aβ aggregation, read-out: EC50 by MSHTS system (MA), Fig. 3.
Setting [7] is: Aβ aggregation, read-out: EC50 by ThT assay (TA), Fig. 3.
The mark [8] stands for this setting: 1st screening, read-out: EC50 [µM] by MSHTS system, Supplementary Table S2 (converted).
The mark [9] stands for this setting: screening of compound library by MSHTS.
Where [10] appears, read: 30 µM Aβ, 30 nM QDAβ, 24 h at 37 °C, read-out: EC50 (μM) Aβ.

Read-outs that look alike come from different tables or passages of the source.

T1 sequence (P05067 672-713 limits assumed): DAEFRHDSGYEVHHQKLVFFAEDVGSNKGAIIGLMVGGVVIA
T2 sequence (P05067 672-713 limits assumed): as above
T3 sequence (P10637 with tags, fused parts or gaps isoform P10637-5 limits assumed): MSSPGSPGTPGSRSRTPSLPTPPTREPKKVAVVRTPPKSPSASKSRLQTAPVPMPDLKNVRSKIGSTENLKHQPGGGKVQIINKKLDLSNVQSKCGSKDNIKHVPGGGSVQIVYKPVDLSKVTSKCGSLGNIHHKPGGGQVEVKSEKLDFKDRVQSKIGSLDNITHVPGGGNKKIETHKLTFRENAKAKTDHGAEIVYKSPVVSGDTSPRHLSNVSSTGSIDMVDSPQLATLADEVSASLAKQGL

Regarding `N#Cc1cccc(/N=N/c2ccc(O)c(=O)cc2)c1` [TR-027], the EC50 (commonly the concentration at which the effect is half-maximal) in assay [1] (setting [4]) is 83 µM; in assay [2] (setting [5]), 38.7 µM.

As for `O=c1ccc(/N=N/c2ccc([N+](=O)[O-])cc2)ccc1O` [TR-001], the concentration for a half-maximal effect (EC50) in assay [2] (setting [6]) came out at 258 µM.

In the case of `O=c1ccc(-c2ccc([N+](=O)[O-])cc2)ccc1O` [MO-010], the EC50 is 144 ± 29 µM in assay [1] (setting [7]) and 52.5 µM in assay [2] (setting [8]). For the same molecule, in assay [2] (setting [9]), the “Aβ aggregation inhibitory activity (in words)” value is on record as “active”.

Consider `O=c1ccc(/N=N/c2cccc([N+](=O)[O-])c2)ccc1O` [TR-002], for which, in assay [2] (setting [5]), the EC50 was 232 µM.

For the molecule `Nc1ccc(O)c(=O)cc1` [MO-009], the EC50 in assay [1] (setting [4]) was 87.6 µM; in assay [2] (setting [8]), 19.1 µM. In assay [2] (setting [9]), the “Aβ aggregation inhibitory activity (in words)” value is “active”.

With `COc1ccc(-c2ccc([N+](=O)[O-])cc2)ccc1=O` [MO-011], the EC50 in assay [2] (setting [6]) stood at 200 ± 66 µM. In assay [2] (setting [9]), the “Aβ aggregation inhibitory activity (in words)” value is “active”.

On to `Oc1cc2ccccc2cc1O` [MO-038], for which, in assay [2] (setting [8]), the EC50 was 31.4 µM. In assay [2] (setting [9]), the “Aβ aggregation inhibitory activity (in words)” value was “active”.

For the molecule `O=c1ccc(/N=N/c2cc(C(F)(F)F)cc(C(F)(F)F)c2)ccc1O` [TR-004], the “Aβ aggregation inhibitory activity (in words)” value in assay [2] (setting [9]) is on record as “no activity”.

With `COc1ccc(-c2cccc([N+](=O)[O-])c2)ccc1=O` [MO-007], in assay [2] (setting [6]), the EC50 amounted to 144 ± 62 µM. Also, the “Aβ aggregation inhibitory activity (in words)” value in assay [2] (setting [9]) is “active”.

On to `O=c1ccc(-c2cccc([N+](=O)[O-])c2)ccc1O` [MO-006], for which, in assay [1] (setting [4]), the EC50 was 75 µM.

For `O=Nc1ccc(O)c(=O)cc1` [MO-020], the EC50 worked out at 152 ± 15 µM in assay [1] (setting [7]) and 154 ± 23 µM in assay [2] (setting [6]). Also, the “Aβ aggregation inhibitory activity (in words)” value in assay [2] (setting [9]) was “active”.

Take `O=c1ccc(/N=N/c2cc([N+](=O)[O-])cc([N+](=O)[O-])c2)ccc1O` [TR-003]: the EC50 in assay [1] (setting [4]) is 18.4 µM; in assay [2] (tropolone derivatives, read-out: MSHTS [µM], EC50, Supplementary Table S4) it was 6.6 µM.

With Protein disulfide isomerase [PDI], the values for the EC50 in assay [3] and in assay [2] (setting [10]) were 12.7 ± 4.6 µM and 1 ± 0.206 µM, respectively.

As to `O=C1C=CC(=O)C=C1` [MO-100], in assay [2], the “Aβ aggregation inhibitory activity (in words)” value is “active” and it took 56 µM to reach a half-maximal effect (EC50).

On to `N#Cc1ccc(/N=N/c2ccc(O)c(=O)cc2)cc1C(F)(F)F` [TR-007], for which the EC50 in assay [1] (setting [7]) is 4.86 ± 0.9 µM; in assay [2] (setting [5]), 13.9 µM.

Turning to `O=c1cccccc1O` [MO-073], the EC50 in assay [1] (setting [7]) was 1610 µM.

As to `CN(C)c1ccc(B(O)O)cc1` [MO-074], the EC50 in assay [2] (setting [8]) is 53.1 µM. Also, the “Aβ aggregation inhibitory activity (in words)” value in assay [2] (setting [9]) is “active”.

B1: ERp57: chaperone (protein, UniProt P30101 25-505, looked up)
Protein disulfide-isomerase A3: SDVLELTDDNFESRISDTGSAGLMLVEFFAPWCGHCKRLAPEYEAAATRLKGIVPLAKVDCTANTNTCNKYGVSGYPTLKIFRDGEEAGAYDGPRTADGIVSHLKKQAGPASVPLRTEEEFKKFISDKDASIVGFFDDSFSEAHSEFLKAASNLRDNYRFAHTNVESLVNEYDDNGEGIILFRPSHLTNKFEDKTVAYTEQKMTSGKIKKFIQENIFGICPHMTEDNKDLIQGKDLLIAYYDVDYEKNAKGSNYWRNRVMMVAKKFLDAGHKLNFAVASRKTFSHELSDFGLESTAGEIPVVAIRTAKGEKFVMQEEFSRDGKALERFLQDYFDGNLKRYLKSEPIPESNDGPVKVVVAENFDEIVNNENKDVLIEFYAPWCGHCKNLEPKYKELGEKLSKDPNIVIAKMDATANDVPSPYEVRGFPTIYFSPANKKLNPKKYEGGRELSDFISYLQREATNPPVIQEEKPKKKKKAQEDL
As for B1, the EC50 in assay [3] worked out at 4.79 ± 1.19 µM; in assay [2] (setting [10]) it was 0.321 ± 0.073 µM.

B2: calreticulin (protein, UniProt P27797 18-417, looked up)
Calreticulin: EPAVYFKEQFLDGDGWTSRWIESKHKSDFGKFVLSSGKFYGDEEKDKGLQTSQDARFYALSASFEPFSNKGQTLVVQFTVKHEQNIDCGGGYVKLFPNSLDQTDMHGDSEYNIMFGPDICGPGTKKVHVIFNYKGKNVLINKDIRCKDDEFTHLYTLIVRPDNTYEVKIDNSQVESGSLEDDWDFLPPKKIKDPDASKPEDWDERAKIDDPTDSKPEDWDKPEHIPDPDAKKPEDWDEEMDGEWEPPVIQNPEYKGEWKPRQIDNPDYKGTWIHPEIDNPEYSPDPSIYAYDNFGVLGLDLWQVKSGTIFDNFLITNDEAYAEEFGNETWGVTKAAEKQMKDKQDEEQRLKEEEEDKKRKEEEEAEDKEDDEDKDEDEEDEEDKEEDEEEDVPGQAKDEL
notes: chaperone
For the molecule B2, the values for the EC50 in assay [3] and in assay [2] (setting [10]) were 0.843 ± 0.047 µM and 0.191 ± 0.04 µM, respectively.

Source of the values: publication PMC6384891, “An automated microliter-scale high-throughput screening system (MSHTS) for real-time monitoring of protein aggregation using quantum-dot nanoprobes” (Scientific Reports, 2019).
